In brackets after ≈: the same amount, converted by molar mass.
How the values were obtained:
[1] = target: Protein kinase C gamma type (Homo sapiens) (UniProt P05129); test: Agonist activity at PKCgamma at 50 ug/ml; assay type: functional
[2] = target: T1, Protein kinase C alpha type (Homo sapiens, UniProt P17252); test: Agonist activity at PKCalpha at 50 ug/ml; assay type: functional
[3] = target: T2, Protein kinase C beta type (Homo sapiens, UniProt P05771); test: Agonist activity at PKCbeta2 at 50 ug/ml; assay type: functional
Target sequence in this assay (P05771 2-671 limits assumed): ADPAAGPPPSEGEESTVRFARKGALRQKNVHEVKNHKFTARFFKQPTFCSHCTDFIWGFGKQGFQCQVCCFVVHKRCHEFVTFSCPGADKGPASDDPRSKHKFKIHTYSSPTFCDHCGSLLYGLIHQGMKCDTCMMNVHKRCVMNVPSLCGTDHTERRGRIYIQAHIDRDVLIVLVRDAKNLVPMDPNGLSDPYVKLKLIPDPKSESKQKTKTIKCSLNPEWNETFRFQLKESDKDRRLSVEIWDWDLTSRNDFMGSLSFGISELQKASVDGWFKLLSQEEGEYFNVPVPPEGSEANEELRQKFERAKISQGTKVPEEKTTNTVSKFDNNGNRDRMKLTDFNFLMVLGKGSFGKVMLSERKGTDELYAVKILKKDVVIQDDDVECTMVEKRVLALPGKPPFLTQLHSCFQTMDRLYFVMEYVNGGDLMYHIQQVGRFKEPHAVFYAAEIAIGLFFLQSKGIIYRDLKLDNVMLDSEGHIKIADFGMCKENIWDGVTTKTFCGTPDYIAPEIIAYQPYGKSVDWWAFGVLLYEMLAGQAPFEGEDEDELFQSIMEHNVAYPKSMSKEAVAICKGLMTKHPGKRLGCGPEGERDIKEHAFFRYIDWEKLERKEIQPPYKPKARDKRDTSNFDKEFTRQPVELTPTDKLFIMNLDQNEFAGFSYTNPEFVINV

[4] = Induction of cell adhesion in mouse EL-4.IL-2 cells; assay type: functional, cell-based
[5] = target: T2, Protein kinase C beta type; test: Agonist activity at PKCbeta1 at 50 ug/ml; assay type: functional
Target sequence in this assay (P05771 2-671 limits assumed): as above

P388 = test: Cytotoxicity against mouse P388 cells; assay type: functional, cell-based
[6] = target: T3, Protein kinase C epsilon type (Homo sapiens) (UniProt Q02156); test: Agonist activity at PKCepsilon at 50 ug/ml; assay type: functional
T3 sequence (whole entry): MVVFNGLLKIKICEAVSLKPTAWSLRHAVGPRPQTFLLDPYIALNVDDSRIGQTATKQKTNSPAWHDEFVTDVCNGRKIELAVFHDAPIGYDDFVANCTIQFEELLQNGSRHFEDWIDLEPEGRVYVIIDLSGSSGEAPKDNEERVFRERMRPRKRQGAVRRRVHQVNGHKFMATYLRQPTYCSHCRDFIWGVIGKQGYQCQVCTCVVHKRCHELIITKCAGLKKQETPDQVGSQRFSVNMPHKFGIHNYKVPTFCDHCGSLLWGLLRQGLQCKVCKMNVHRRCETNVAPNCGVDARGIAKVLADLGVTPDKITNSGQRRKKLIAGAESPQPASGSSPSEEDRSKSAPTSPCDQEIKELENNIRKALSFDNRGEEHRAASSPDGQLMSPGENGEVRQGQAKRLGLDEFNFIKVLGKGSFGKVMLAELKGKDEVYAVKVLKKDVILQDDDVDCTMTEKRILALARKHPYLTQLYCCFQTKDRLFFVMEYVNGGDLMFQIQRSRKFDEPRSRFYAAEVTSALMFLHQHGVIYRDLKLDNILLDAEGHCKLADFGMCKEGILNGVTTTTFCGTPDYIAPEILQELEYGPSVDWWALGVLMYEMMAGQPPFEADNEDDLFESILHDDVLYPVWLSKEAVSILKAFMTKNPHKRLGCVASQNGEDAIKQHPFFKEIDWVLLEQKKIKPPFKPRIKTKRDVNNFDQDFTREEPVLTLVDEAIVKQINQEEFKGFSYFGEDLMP

[7] = target: T4, Protein kinase C delta type (Homo sapiens, UniProt Q05655); test: Agonist activity at PKCdelta at 50 ug/ml; assay type: functional
Target sequence in this assay (Q05655 whole entry, looked up): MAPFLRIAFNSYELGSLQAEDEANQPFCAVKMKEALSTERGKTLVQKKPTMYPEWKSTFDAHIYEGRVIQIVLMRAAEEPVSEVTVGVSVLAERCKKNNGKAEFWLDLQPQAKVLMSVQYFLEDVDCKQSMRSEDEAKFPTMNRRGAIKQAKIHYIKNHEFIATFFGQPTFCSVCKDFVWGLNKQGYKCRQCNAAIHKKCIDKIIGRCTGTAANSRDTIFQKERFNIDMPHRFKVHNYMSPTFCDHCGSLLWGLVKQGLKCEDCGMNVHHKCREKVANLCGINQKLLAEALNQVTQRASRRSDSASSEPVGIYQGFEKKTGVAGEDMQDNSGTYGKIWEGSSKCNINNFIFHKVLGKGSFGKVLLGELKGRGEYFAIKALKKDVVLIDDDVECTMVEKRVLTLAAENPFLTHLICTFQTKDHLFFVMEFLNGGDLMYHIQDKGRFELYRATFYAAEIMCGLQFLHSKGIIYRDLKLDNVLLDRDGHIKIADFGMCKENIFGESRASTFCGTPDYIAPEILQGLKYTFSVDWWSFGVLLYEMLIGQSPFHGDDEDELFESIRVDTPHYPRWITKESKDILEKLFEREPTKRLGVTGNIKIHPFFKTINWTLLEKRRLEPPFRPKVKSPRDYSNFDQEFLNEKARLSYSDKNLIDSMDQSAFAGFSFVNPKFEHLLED

A549 = test: Cytotoxicity against human A549 cells; assay type: functional, cell-based
[8] = target: T1, Protein kinase C alpha type; test: Inhibition of PKCalpha
[9] = target: T2, Protein kinase C beta type; test: Inhibition of PKCbeta2
Target sequence in this assay (P05771 whole entry): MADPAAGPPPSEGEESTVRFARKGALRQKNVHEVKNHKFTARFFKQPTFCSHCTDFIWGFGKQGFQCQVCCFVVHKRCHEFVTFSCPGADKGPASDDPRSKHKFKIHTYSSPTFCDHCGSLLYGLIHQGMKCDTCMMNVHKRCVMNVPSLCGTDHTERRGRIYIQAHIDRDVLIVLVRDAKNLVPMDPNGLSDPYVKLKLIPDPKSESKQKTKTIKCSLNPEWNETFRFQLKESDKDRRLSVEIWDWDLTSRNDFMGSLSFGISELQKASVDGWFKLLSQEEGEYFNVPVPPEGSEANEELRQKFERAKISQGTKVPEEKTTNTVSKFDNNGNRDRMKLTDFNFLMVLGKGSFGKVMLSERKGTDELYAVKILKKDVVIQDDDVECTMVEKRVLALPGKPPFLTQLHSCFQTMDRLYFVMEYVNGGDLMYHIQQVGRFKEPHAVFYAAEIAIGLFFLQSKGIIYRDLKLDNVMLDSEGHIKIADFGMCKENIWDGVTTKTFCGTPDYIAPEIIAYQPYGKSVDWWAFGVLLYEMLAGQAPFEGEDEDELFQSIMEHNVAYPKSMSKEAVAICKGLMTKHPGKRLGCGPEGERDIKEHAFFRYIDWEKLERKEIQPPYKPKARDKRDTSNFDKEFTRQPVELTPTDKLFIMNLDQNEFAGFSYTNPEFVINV

[10] = target: T4, Protein kinase C delta type; test: Inhibition of PKCdelta
Target sequence in this assay (Q05655 whole entry): as the sequence (Q05655 whole entry, looked up) above

[11] = target: T2, Protein kinase C beta type; test: Inhibition of PKCbeta1
Target sequence in this assay (P05771 whole entry): as the sequence (P05771 whole entry) above

[12] = Inhibition of cell adhesion in mouse EL-4.IL-2 cells; assay type: functional, cell-based

SMILES: CC(CCCCCCCCc1ccccc1)C[C@]1(C)C[C@]2(C)OC(=O)C[C@@H]2OO1 (some centres undefined) [PLAKORTOLIDE B]
- Activity [1]: -9%
- Activity [2]: -19%
- Activity [3]: -27%
- IC50 [4]: 4.4 µg/mL (≈ 10.9 µM)
- Activity [5]: -13%
- IC50 (P388): 0.4 µg/mL (≈ 0.994 µM)
- Activity [6]: -38%
- Activity [7]: -9%
- IC50 (A549): 1.3 µg/mL (≈ 3.23 µM)

SMILES: CCCCCCCCCCCCCCCC[C@@]1(OC)C=C[C@@H](CC(=O)OC)OO1 [CHONDRILLIN]
- IC50 [8]: 87.2 µM
- IC50 [9]: 119 µM
- IC50 [10]: 55.7 µM
- IC50 [11]: 119 µM

SMILES: COC(=O)C[C@@]1(C)C[C@](C)(CC(C)CCCCCCc2ccccc2)OO1 (some centres undefined) [EPIPLAKINIC ACID E METHYL ESTER]
- IC50 (P388): 2.5 µg/mL (≈ 6.64 µM)
- IC50 [12]: 4.6 µg/mL (≈ 12.2 µM)
- IC50 (A549): 2 µg/mL (≈ 5.31 µM)

SMILES: CC(CCCCCCc1ccccc1)CC(C)C[C@]1(C)C[C@]2(C)OC(=O)C[C@@H]2OO1 (some centres undefined) [PLAKORTOLIDE D]
- IC50 (P388): 0.8 µg/mL (≈ 1.92 µM)
- IC50 [12]: 15.8 µg/mL (≈ 37.9 µM)
- IC50 (A549): 3.8 µg/mL (≈ 9.12 µM)

— ChEMBL document CHEMBL1148071, “New cytotoxic peroxylactones from the marine sponge, Plakinastrella onkodes” (J Nat Prod, 1994)
